Results as given in publication PMC11078216, “Discovery of potent and selective activity-based probes (ABPs) for the deubiquitinating enzyme USP30” (RSC Chemical Biology, 2024).

Biological target: T1, RTN3 (Homo sapiens, UniProt O95197)
T1 construct: endogenous in cells; host or cells: HEK293T
T1 sequence (O95197 1-1032): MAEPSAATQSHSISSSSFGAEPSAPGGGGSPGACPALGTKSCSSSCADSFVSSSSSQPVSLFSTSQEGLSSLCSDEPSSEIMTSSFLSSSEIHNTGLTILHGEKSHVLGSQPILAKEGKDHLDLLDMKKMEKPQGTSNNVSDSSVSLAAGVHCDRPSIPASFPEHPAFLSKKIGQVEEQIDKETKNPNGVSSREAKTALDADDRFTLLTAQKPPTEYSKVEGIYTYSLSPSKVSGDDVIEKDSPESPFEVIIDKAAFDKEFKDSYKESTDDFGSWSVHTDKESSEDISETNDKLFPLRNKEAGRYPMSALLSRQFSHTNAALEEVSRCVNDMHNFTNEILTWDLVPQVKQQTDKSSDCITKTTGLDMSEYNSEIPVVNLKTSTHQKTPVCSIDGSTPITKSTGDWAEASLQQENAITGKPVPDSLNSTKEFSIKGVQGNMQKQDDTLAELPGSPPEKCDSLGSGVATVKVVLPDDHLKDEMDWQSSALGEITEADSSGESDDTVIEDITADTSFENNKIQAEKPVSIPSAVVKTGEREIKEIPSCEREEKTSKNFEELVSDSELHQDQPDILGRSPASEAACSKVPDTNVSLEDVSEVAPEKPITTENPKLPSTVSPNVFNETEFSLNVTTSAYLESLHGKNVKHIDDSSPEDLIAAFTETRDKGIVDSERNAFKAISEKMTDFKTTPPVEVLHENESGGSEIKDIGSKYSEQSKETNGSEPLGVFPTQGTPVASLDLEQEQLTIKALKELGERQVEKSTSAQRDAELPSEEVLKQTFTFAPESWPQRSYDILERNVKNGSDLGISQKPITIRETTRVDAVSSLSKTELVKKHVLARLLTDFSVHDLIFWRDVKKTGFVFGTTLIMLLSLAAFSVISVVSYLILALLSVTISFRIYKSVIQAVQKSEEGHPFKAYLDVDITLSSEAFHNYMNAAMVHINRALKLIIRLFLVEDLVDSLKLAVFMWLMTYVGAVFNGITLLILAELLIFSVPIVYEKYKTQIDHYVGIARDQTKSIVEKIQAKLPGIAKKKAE
Assay: ABPP chemical proteomics (LC-MS/MS) in HEK293T cells
Type: cell-based
Protocol: To explore the selectivity of IMP-2587 and IMP-2586 across the whole proteome, we performed quantitative activity-based protein profiling (ABPP) in HEK293T cells following treatment with IMP-2587 or IMP-2586 (Fig. 3a). After ABP incubation, cells were lysed, and probe-labelled proteins were ligated to biotinylated capture reagents.[27] […] USP30 was outcompeted by corresponding parent inhibitors for each ABP (Fig. 5b and d and Tables S3 and S5, ESI ^†), confirming the high potency and rapid engagement of IMP-2587 and IMP-2586 in cells. […] DESI1 and DESI2 are small ubiquitin-related modifier (SUMO) proteases,[3,29–32] and IMP-2587 and IMP-2586 may offer a starting point for future development of DESI ABPs. […]
d) Live cell probe incubation, lysate click chemistry and precipitation 6-well HEK293T cells were incubated with media containing compounds ABP 2 and ABP 4 at indicated concentrations for 1 h at 37 °C. The cells were washed with PBS and lysed with lysis buffer (50 μL (1% (v/v) Triton X-100, 0.1% (w/v) sodium dodecyl sulfate (SDS), EDTA-free complete protease inhibitor cocktail (1×, Roche) in PBS on ice for 10 min. The lysates were scraped and transferred to corresponding Lo-Bind Eppendorfs. Each lysate was sonicated for 1 minute, and the samples centrifuges at 5,000 x g at 4 °C for 5 minutes to pellet insoluble cellular debris. The supernatant was collected, and protein concentration was determined using the DC Protein Assay (Bio-Rad) as per manufacturer’s instructions, and normalised to lowest concentrated sample (e.g. 1 mg/mL, using lysis buffer). The following “click mixture” was prepared separately, preparing 6 μL for every 100 μL of […]
Capture reagent (AzRB/AzT for ABP 2, YnT/YnB for ABP 4 10 mM in DMSO, 1 vol; final concentration […]
CuSO4 (50 mM in water, 2 vol; final concentration in reaction 1 mM)
TCEP (50 mM in water, 2 vol; final concentration in reaction 1 mM)
TBTA (10 mM in DMSO, 1 vol; final concentration in reaction 100 µM)
The click mixture was vortexed and incubated at room temperature for 2 min before 6 μL of the mixture was added to every 100 μL of lysate. The reaction mixtures were shaken at room temperature for 1 h before being quenched with EDTA (500 mM in H2O) to a final concentration of 10 mM.
Proteins were precipitated by adding H2O (1 vol), MeOH (2 vol) and CHCl3 (0.5 vol), vortexing briefly then centrifuging at 17,000 × g for 5 min. The top H2O/MeOH layer was discarded and the middle layer of protein pellet and lower CHCl3 layer retained. The suspension was washed with MeOH (300 μL), and sonicated to break up the pellet. The proteins were pelleted by centrifugation at 10,000–17000 × g for 5–10 min or until a compact pellet was formed. The protein pellet was washed once more with MeOH (1 mL). The pellet was resuspended by sonicating and completely dissolving in 1% (w/v) SDS in PBS (to 5 mg/mL protein) before being made up to 1 mg/mL protein with PBS. […]
f) Neutravidin biotin enrichment (Affinity pull-down)
Click chemistry and precipitation steps were carried out as described in section 3.2.d, on at least 400ug of protein per sample. The pellet was resuspended by sonicating and completely dissolving in 1% (w/v) SDS in HEPES 50 mM pH 8.0, before being made up to 1 mg/mL protein with HEPES 50 mM pH 8.0 to […]
achieve a final concentration of 0.2% SDS. 20uL of each samples was collected as TL (Total lysate) samples. Pull down of biotinylated proteins was achieved by incubating samples with pre-equilibrated (3x 1 mL washes with 0.2% (w/v) SDS in HEPES 50 mM pH 8 buffer) Pierce™ NeutrAvidin™ Agarose beads for 3 hours at room temperature. NeutrAvidin™ Agarose beads were used in ratio of 1 μL bead resin per 10ug of protein sample. The beads were subsequently washed by moderate shaking for 10 seconds then briefly pelleting by table-top centrifuge then vacuum aspirating the supernatant with fine-end pipette tips (to not disturb the agarose) after collecting 20 µL supernatant as SN (supernatant […]
) samples. […]

## N#CN1CC[C@@H](NC(=O)c2cc(-c3ccccc3Oc3ccc(N=[N+]=[N-])cc3)n[nH]2)C1 [IMP-2586]
IMP-2586 labelling vs DMSO, 30 nM, 10 min, HEK293T (Table S4, Fig.5c)
  Difference (log2 fold change of enrichment): 0.91

## C#Cc1cccc(-c2cc(NC(=O)CC3CCN(C#N)C3)on2)c1 (stereo not shown) [IMP-2587]
IMP-2587 labelling vs DMSO, 30 nM, 10 min, HEK293T (Table S2, Fig.5a)
  Difference (log2 fold change of enrichment): 1.07

## N#CN1CC[C@H](CC(=O)Nc2cc(-c3cccc(Cl)c3)no2)C1 [compound 1, reference compound]
Compound 1 out-competition with IMP-2587 labelling, HEK293T (Table S3, Fig.5b)
  Difference (log2 fold change of enrichment): -0.64

## N#CN1CC[C@@H](NC(=O)c2cc(-c3ccccc3Oc3ccccc3)n[nH]2)C1 [compound 3, reference compound]
Compound 3 out-competition with IMP-2586 labelling, HEK293T (Table S5, Fig.5d)
  Difference (log2 fold change of enrichment): -0.42
